Data on 7 compounds can be found in patent US9187413B2, “Peripherally restricted FAAH inhibitors” (The Regents of the University of California, priority 2010, dated 2015).

Like-named read-outs stand apart in the source and are kept apart here.

The subject of series [1] is carrageenan-induced inflammation. As to the kind of experiment: Carrageenan-induced hyperalgesia, allodynia and paw edema. The class given is in vivo, mice. As to conditions: Swiss mice, 1 mg-kg^-1, i.p., carrageenan. As for the experimental part: Behavioral tests. We measured nocifensive responses elicited by i.p. injection of acetic acid in male Swiss and C57B1/6 (wild-type or FAAH-deficient) mice^40, intraplantar injection of carrageenan in male Swiss mice^20, intraplantar injection of formalin in male Sprague-Dawley rats^41, and sciatic nerve ligation in male Swiss mice^39.
Behavioral tests Acetic acid-induced writhing was measured in Swiss mice or C57B1/6 mice (wild-type and FAAH-deficient), as described^40 with minor modifications. Briefly, the mice were acclimated to the experimental room for 2 h. Each animal was injected with acetic acid (150 μL, 0.6% in saline) and placed into a glass cylinder. Abdominal stretches (extension of body and hind limbs) were counted for 20 min, starting 5 min after acetic acid injection. […] Behavior was scored by an observer blinded to the treatment conditions. Formalin-induced nociception was assessed in Sprague-Dawley rats, as described^41. The rats were singly housed and kept in a shared holding room under a 12:12 h light:dark cycle. They were given free access to food and water, and allowed to acclimate to the facility for a week before testing. […] They were acclimated to the observation container (clear plexiglas box, 29×29×25 cm) for 15 min before receiving an injection of formalin (50 μL, 5% in saline) into the dorsal surface of the right hind paw. Immediately after formalin injection, the rats were returned to the observation container and nocifensive behavior was recorded for 60 min with a video camera. Recordings were analyzed by observers blinded to treatment conditions. Nocifensive behavior was measured continuously for 60 min^41. […] Each 5-min bin was analyzed for time spent (1) lifting and (2) licking or biting the injected paw. Nocifensive behavior was analyzed using the composite pain score weighted scores technique (CPS-WST1,2) calculated for the entire time of observation (0-60 min) and, separately, for the first (0-10 min) and second phase (10-60 min) of the behavioral response^46. The area under the curve (AUC) corresponding to CPS-WST1,2 was calculated using the trapezoidal rule. Paw edema was induced in mice by injection into the right hind paws of 50 μL of sterile saline containing 1% λ-carrageenan. Paw volumes were measured using a plethysmometer (Ugo Basile, Milan, Italy). […] Rimonabant and AM630 (1 mg kg^−1, i.p.) were injected 30 min before carrageenan. Mechanical hyperalgesia was assessed by measuring the latency(s) to withdraw the paw from a constant mechanical pressure exerted onto its dorsal surface. A 15-g calibrated glass cylindrical rod (diameter=10 mm) chamfered to a conical point (diameter=3 mm) was used to exert the mechanical force. The weight was suspended vertically between two rings attached to a stand and was free to move vertically. A cutoff time of 3 min was used. Thermal hyperalgesia was assessed as described^47, measuring the latency to withdraw the hind paw from a focused beam of radiant heat (thermal intensity: infrared 3.0) applied to the plantar surface, using a commercial apparatus (Ugo Basile, Varese, Italy). The cutoff time was set at 30 s. Mechanical allodynia was assessed by applying a graded force to the plantar hind paw surface with a Von Frey filament, using a Dynamic Plantar Anesthesiometer (Ugo Basile). The cutoff force was set at 50 g.

Series [2] deals with FAAH (Mus musculus (Mouse), UniProt O08914). In words: FAAH inhibition ex vivo after systemic administration in mice. As to conditions: for inhibition at 1 mg/kg: mouse, ip, ex vivo 1 h after a single injection in mice (1 mg-kg^-1, i.p.); for ability to access the brain after systemic administration: mice, 1 mg-kg^-1, i.p. As to the method:
Drug preparation for in vivo experiments Drugs were dissolved in polyethylene glycol 400/Tween-80/saline (1/1/18; by volume) and administered by i.p. (5-10 mL-kg^−1) or s.c. injection (10 mL-kg^−1).

Series [3] has as its target rat brain FAAH (Rattus norvegicus (Rat), UniProt P97612). The settings on record: membrane preparation of rat brain. From the text: Enzyme assays. We conducted standard FAAH and monoacylglycerol lipase assays as described^15,37, using as substrates [^3H]-anandamide (a gift of the National Institute on Drug Abuse) and 2-oleoyl-sn-glycerol (Nu-Check Prep, Elysian, Minn.), respectively.

The test system of series [4] is Fos protein. As to the kind of experiment: Formalin-induced Fos expression in lumbar spinal cord. Format: in vivo. The settings on record: rats, 2 mg-kg^-1, i.p., administered without URB937. As to the method:
Fos expression. We measured Fos protein levels by quantitative immunocytochemistry^5 on slices of lumbar (L4/L5) spinal cord from male Sprague-Dawley rats.
Fos immunohistochemistry Two hours after formalin injection into the dorsal paw, rats received a lethal dose of Nembutal (50 mg-mL^−1). They were perfused through the heart with 100 mL of 1% heparinized phosphate buffered saline (PBS) followed by 300 mL of ice-cold 4% paraformaldehyde. The lumbar-sacral region of the spinal cord was collected from each rat. Spinal cords were post fixed in 4% paraformaldehyde at 4° C. for 24 h and then cryoprotected in 30% sucrose at 4° C. for 24-48 hours. Spinal cords were cryostat-cut into 40 μm transverse sections at the level of the lumbar enlargement (L4/L5). Free floating alternating sections were kept in a series of wells filled with PBS. Every fourth section was processed for Fos immunoreactivity to ensure that the same cell would not be counted twice. Endogenous peroxidases were inactivated by incubation in hydrogen peroxide. […]
Selection of sections and quantification of the number of Fos-positive cells was performed by an observer blinded to experimental conditions. […] Using Image J, Fos expressing cells were counted in each subdivision, regardless of staining intensity, by an observer blinded to experimental treatments.

[5] abbreviates: brain, read-out: FAAH Inhibition in brain (%).
[6] abbreviates: liver, read-out: FAAH Inhibition in liver (%).

Sequence of FAAH (O08914 whole entry): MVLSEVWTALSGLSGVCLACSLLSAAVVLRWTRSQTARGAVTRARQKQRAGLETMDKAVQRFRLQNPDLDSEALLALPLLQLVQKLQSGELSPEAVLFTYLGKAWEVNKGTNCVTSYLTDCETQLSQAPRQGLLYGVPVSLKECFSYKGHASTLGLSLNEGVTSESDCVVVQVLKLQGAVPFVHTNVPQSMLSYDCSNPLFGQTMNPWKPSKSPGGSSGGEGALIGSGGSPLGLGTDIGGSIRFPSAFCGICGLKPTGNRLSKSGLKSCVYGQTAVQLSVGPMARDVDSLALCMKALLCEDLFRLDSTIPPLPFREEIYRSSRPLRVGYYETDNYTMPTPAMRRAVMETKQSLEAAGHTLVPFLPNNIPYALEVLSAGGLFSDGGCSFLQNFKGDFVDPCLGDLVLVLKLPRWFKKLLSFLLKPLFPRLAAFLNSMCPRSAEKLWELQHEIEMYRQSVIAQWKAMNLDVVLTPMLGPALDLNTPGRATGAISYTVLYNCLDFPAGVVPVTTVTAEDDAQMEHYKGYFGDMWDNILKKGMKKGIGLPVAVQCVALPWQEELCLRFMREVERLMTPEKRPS
Sequence of rat brain FAAH (P97612 whole entry): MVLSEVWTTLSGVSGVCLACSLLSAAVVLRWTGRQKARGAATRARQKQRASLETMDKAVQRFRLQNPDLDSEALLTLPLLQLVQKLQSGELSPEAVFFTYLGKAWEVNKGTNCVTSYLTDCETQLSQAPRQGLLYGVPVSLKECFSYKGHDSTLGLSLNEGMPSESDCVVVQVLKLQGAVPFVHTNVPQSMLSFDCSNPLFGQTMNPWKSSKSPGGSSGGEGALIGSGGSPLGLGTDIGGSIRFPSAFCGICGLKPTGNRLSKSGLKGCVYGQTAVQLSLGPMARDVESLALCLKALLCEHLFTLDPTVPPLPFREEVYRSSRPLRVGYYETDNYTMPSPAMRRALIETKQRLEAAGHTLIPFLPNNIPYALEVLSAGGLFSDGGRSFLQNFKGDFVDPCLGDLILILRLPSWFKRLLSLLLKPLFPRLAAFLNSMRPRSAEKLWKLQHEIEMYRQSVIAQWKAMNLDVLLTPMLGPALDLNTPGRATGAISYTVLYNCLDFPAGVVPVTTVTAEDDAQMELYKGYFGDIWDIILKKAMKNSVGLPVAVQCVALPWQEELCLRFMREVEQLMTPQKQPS

`COc1ccc(C(=O)c2c(C)n(CCN3CCOCC3)c3cc(I)ccc23)cc1` [AM630, reference compound]: the “hyperalgesia and allodynia in contralateral (non-injected) paws” value in series [1] is reported as “had no effect”.
Consider `NC(=O)c1cccc(-c2cccc(OC(=O)NC3CCCCC3)c2)c1` [Compound 1a, cyclohexylcarbamic acid 3′-carbamoylbiphenyl-3-yl ester, reference compound], for which, in series [2] (setting [5]), the inhibition – broadly, the relative decrease from the control value, in per cent – at 1 mg/kg is 96.2 ± 0.4%.
Consider `COc1ccc(OC(=O)NC2CCCCC2)cc1-c1cccc(C(N)=O)c1` [Compound 1c], for which the “ability to access the brain after systemic administration” value (from here on “ability to access the brain”) in series [2] is recorded as “readily entered the brain”.
As to `Cc1ccc(OC(=O)NC2CCCCC2)cc1-c1cccc(C(N)=O)c1` [Compound 1d], the “ability to access the brain” value in series [2] is on record as “readily entered the brain”. The inhibition at 1 mg/kg came to 91.9 ± 1.5% in series [2] (setting [5]) and 93 ± 1.1% in series [2] (setting [6]). Further, 20.5 ± 0.6 nM corresponded to half-maximal inhibition in series [3] (IC50).
On to `NC(=O)c1cccc(-c2cc(OC(=O)NC3CCCCC3)ccc2F)c1` [Compound 1e], for which, in series [2], the “ability to access the brain” value was “readily entered the brain”. The inhibition at 1 mg/kg was 89.7 ± 1.3% in series [2] (setting [5]) and 90.7 ± 1.2% in series [2] (setting [6]). The IC50 (usually the concentration needed to halve the response being measured) in series [3] worked out at 49.7 ± 5.8 nM.
The matching figures for `NC(=O)c1cccc(-c2cc(OC(=O)NC3CCCCC3)ccc2N)c1` [Compound 1f]: “largely excluded”, 23.2 ± 2.1%, 92.2 ± 0.6% and 42.5 ± 4.2 nM.
Regarding `Cc1c(C(=O)NN2CCCCC2)nn(-c2ccc(Cl)cc2Cl)c1-c1ccc(Cl)cc1` [rimonabant, reference compound], the “formalin-induced Fos levels, antagonist without URB937” value in series [4] is listed as “did not significantly alter Fos levels”. Also, in series [1], the “hyperalgesia and allodynia in contralateral (non-injected) paws” value was “had no effect”.
